Data reported in ChEMBL document CHEMBL1201862, “PubChem BioAssay data set” (2004).
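Protocol summary: plate cells (96-well), add compound at 5 concentrations, incubate 48 h, interpolate endpoints linearly. GI50 marks 50% less growth.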 Activity calls are given as the source filed them. Cut-off read from the data, not from the text of the source: active = GI50 up to about 1.1 µM and inactive = higher.

Legend:
Assay in all cases: growth of human tumour cells (NCI), 48 h
[1] = test system: LXFL 529
[2] = test system: SNB-78
[3] = test system: HOP-18
[4] = test system: M19-MEL
[5] = test system: XF498
[6] = test system: DMS-273
[7] = test system: KM-20L2
[8] = test system: DMS-114
[9] = test system: RXF 631

Measured: GI50

O=C1OC(c2ccc(Cl)cc2)(c2ccc(Cl)cc2)c2c1ccc1ccccc21
inactive: [1] > 100 µM | [2] > 100 µM | [3] > 100 µM | [4] > 100 µM | [5] > 100 µM | [6] > 100 µM | [7] > 100 µM

CCOC(=O)CC(NC(=O)c1ccc(/N=N/N(C)C)cc1)C(=O)OCC (stereo unspecified)
inactive: [1] > 100 µM | [4] > 100 µM | [6] > 100 µM

O=C1CN(c2ccccc2)C(=O)C1C(=O)Nc1ccc(Cl)c(Cl)c1 (stereo unspecified)
inactive: [1] 1.65 µM | [4] 1.77 µM | [8] 2.76 µM | [6] 3.1 µM | [7] 4.41 µM | [9] 3.59 µM

O=C1NC2(CCCCC2)C2CCCCCC12 (stereo unspecified)
inactive: [1] > 100 µM | [2] > 100 µM | [5] > 100 µM | [8] > 100 µM | [7] > 100 µM | [9] > 100 µM

CC1=NC(C(=O)O)Cc2c1[nH]c1ccccc21 (stereo unspecified)
inactive: [1] > 100 µM | [2] > 100 µM | [3] > 100 µM | [4] > 100 µM | [5] > 100 µM | [8] > 100 µM | [7] > 100 µM | [9] > 100 µM

COc1cc2c(cc1OC)C(Cl)C(c1cc(OC)c(OC)c(OC)c1)=C2Cl (stereo unspecified)
inactive: [1] 11.5 µM | [2] 12.2 µM | [3] 14.7 µM | [4] 14.8 µM | [8] 10.8 µM | [6] 16.5 µM | [7] 17.9 µM | [9] 18.8 µM

CC1(C)C2CCC3(OCCO3)C1C(O)C2 (stereo unspecified)
inactive: [1] > 100 µM | [2] > 100 µM | [3] > 100 µM | [4] > 100 µM | [5] > 100 µM | [6] > 100 µM | [7] > 100 µM | [9] > 100 µM

COc1ccc(N2C(=O)C3C=CC(n4[nH]c(=O)n(Cc5ccccc5)c4=O)CC3C2=O)cc1 (stereo unspecified)
inactive: [1] > 100 µM | [2] > 100 µM | [3] > 100 µM | [4] > 100 µM | [5] > 100 µM | [8] > 100 µM | [6] > 100 µM | [7] > 100 µM

Cc1cc2c(C(C)C)c(O)c(O)c(/C=N/c3ccccc3)c2c(O)c1-c1c(C)cc2c(C(C)C)c(O)c(O)c(/C=N/c3ccccc3)c2c1O
inactive: [1] > 100 µM | [4] > 100 µM | [5] > 100 µM | [8] > 100 µM | [6] > 100 µM | [7] > 100 µM

COC(=O)c1cccc(C(=O)OC)c1
inactive: [1] > 100 µM | [2] > 100 µM | [3] > 100 µM | [5] > 100 µM | [6] > 100 µM

CN(C)CCSc1nccc(-c2ccc(-c3ccnc(SCCN(C)C)n3)s2)n1
inactive: [2] 13 µM | [3] 27.2 µM | [4] 9.42 µM | [5] 15.6 µM | [8] 11.9 µM | [6] 8.3 µM | [7] 7.36 µM

COc1nc(N)nc2nc[nH]c12
inactive: [1] > 800 µM | [2] 287 µM | [3] 360 µM | [4] > 500 µM | [5] 279 µM | [8] 467 µM | [6] 430 µM | [7] > 500 µM | [9] 647 µM
